Active and inactive are the calls of the source.
What was measured:
[1] = target: T1, Rac GTPase-activating protein 1 (Homo sapiens, UniProt Q9H0H5); assay: MgcRacGAP GTPase-activating activity inhibitors, confirmation, biochemical, ADP Hunter fluorescence, primary and confirmatory (AID 624330); format: functional
T1 sequence (Q9H0H5 whole entry): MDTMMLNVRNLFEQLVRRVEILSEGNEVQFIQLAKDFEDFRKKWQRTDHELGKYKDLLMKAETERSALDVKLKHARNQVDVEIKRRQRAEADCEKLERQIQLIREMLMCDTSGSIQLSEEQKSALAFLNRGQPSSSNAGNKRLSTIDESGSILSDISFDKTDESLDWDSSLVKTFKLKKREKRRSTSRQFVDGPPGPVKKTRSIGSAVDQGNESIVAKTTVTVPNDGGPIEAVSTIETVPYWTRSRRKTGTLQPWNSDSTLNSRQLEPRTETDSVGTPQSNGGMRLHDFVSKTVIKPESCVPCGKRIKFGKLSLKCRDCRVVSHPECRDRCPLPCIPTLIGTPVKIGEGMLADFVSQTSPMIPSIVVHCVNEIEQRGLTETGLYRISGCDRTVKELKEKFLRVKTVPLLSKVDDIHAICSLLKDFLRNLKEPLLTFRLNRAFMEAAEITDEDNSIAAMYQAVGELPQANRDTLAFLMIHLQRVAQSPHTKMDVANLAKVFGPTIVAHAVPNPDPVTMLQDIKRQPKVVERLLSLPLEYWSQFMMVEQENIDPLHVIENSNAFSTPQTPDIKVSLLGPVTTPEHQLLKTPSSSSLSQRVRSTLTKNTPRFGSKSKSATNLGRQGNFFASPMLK

[2] = tested on: H4; assay: Luminescence Cell-Based Dose Response HTS to Identify Activators of 5'UTR Stem-Loop Driven Prion Protein mRNA Translation in H4 Neuroglioblastoma Cells. [Related pubchem assays: 1829 (Project Summary), 1814 (Primary HTS)]; format: functional; conditions: Homo sapiens
[3] = Luminescence Cell-Based Dose Confirmation HTS to Identify Activators of 5'UTR Stem-Loop Driven Alpha-Synuclein mRNA Translation in H4 Neuroglioblastoma Cells. [Related pubchem assays: 1829 (Project Summary), 1814 (Primary HTS)]; format: functional
[4] = Luminescence Cell-Based Dose Response HTS to Identify Activators of Luciferase Translation or Activity in H4 […] Cells. [Related pubchem assays: 1829 (Project Summary), 1814 (Primary HTS)]; format: functional
[5] = target: T2, Heat shock factor protein 1 (Mus musculus, UniProt P38532); assay: inhibition of MG132-induced HSE-luciferase signal, confirmation, cell-based, NIH3T3, luminescence, dose retest (AID 2382); format: functional;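 note: NIH3T3 fibroblasts with HSF1-driven luciferase reporter stressed by proteasome inhibitor MG132; luminescence from HSF1-driven luciferase expression after 8 hours of MG132 stress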
T2 sequence (P38532 whole entry): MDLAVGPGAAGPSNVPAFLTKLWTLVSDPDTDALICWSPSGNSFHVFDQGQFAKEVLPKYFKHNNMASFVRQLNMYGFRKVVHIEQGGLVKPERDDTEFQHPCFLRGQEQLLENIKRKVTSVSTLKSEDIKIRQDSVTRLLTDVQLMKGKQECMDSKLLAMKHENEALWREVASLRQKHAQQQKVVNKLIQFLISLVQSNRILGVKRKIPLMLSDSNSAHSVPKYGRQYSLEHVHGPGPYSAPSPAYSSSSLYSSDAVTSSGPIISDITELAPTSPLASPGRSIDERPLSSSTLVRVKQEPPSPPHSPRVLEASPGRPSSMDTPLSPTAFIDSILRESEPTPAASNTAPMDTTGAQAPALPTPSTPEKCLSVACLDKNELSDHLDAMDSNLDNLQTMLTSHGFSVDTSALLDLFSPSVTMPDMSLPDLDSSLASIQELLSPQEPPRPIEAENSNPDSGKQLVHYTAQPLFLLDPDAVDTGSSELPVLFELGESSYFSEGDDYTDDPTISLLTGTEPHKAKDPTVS

[6] = target: FAD-linked sulfhydryl oxidase ALR (Homo sapiens, UniProt P55789); assay: inhibitors of human ALR sulfhydryl oxidase, dose response, biochemical, H2O2 detection, luminescence, cherry-pick (AID 493248)
[7] = target: T2, Heat shock factor protein 1; assay: HSF1 potentiators in luciferase reporter cells, confirmation, cell-based, NIH3T3, luminescence, dose retest (AID 435004); format: functional;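 note: stress induced by proteasome inhibitor MG132 added 30 min after compound; luciferase reporter driven by HSF1 response element in NIH3T3 cells; actives raise luminescence as potentiators of the MG132 stress response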
[8] = target: Induced myeloid leukemia cell differentiation protein Mcl-1 (Homo sapiens, UniProt Q07820); format: functional
[9] = cells; format: functional
[10] = target: Cytochrome P450 2C19 (Homo sapiens, UniProt P33261); assay: Cytochrome panel assay with activity outcomes. Panel member name: p450-cyp2c19 Compounds with AC50 equal or less than 10 uM are considered active; format: functional; conditions: read-out: AC50
[11] = control 3'UTR Renilla luciferase suppression, dose response, counter-screen for Shn3 inhibitor project, cell-based, Clone20-Shn3RL, cherry-picked (AID 624133); format: functional
[12] = inhibitors of SNCA 5'UTR-driven reporter translation, confirmation, H4 neuroglioma cells, luminescence (AID 1988); format: functional, cell-based
[13] = inhibitors of firefly luciferase expression or activity, dose response, H4 neuroglioma cells, luminescence (AID 1990); format: functional, cell-based
[14] = Luminescence Cell-Based Dose Response HTS to Identify Inhibitors of 5'UTR Stem-Loop Driven Prion Protein mRNA Translation in H4 Neuroglioblastoma Cells. [Related pubchem assays: 1827 (Project Summary), 1813 (Primary HTS)]; format: functional
[15] = target: Nonstructural protein 1 (Influenza A virus, UniProt Q194T2); format: functional, Influenza A virus (A/California/07/2009(H1N1))
[16] = HepG2 cell cytotoxicity, dose response, cytotoxicity control for Shn3 inhibitor project, CellTiter-Glo, cherry-picked (AID 624134); format: functional, cell-based
[17] = Shn3 3'UTR reporter inhibitors, dose response, cell-based, Clone20 osteoblasts, firefly luciferase, cherry-picked (AID 624132); format: functional;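 note: firefly luciferase luminescence from reporter carrying the Shn3 3'UTR in osteoblasts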
[18] = target: Cytochrome P450 3A4 (Homo sapiens, UniProt P08684);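 note: CYP3A4 tested as one member of a cytochrome P450 panel screen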
[19] = target: T3, Protein RecA (Mycobacterium tuberculosis, UniProt P9WHJ3); assay: Fluorescence Cell-Free Homogeneous Dose Retest to Identify Inhibitors of RecA-Intein Splicing Activity. [Related pubchem assays (depositor defined):AID2097, AID2223, AID489010, AID492950]; format: functional
T3 sequence (P9WHJ3 whole entry): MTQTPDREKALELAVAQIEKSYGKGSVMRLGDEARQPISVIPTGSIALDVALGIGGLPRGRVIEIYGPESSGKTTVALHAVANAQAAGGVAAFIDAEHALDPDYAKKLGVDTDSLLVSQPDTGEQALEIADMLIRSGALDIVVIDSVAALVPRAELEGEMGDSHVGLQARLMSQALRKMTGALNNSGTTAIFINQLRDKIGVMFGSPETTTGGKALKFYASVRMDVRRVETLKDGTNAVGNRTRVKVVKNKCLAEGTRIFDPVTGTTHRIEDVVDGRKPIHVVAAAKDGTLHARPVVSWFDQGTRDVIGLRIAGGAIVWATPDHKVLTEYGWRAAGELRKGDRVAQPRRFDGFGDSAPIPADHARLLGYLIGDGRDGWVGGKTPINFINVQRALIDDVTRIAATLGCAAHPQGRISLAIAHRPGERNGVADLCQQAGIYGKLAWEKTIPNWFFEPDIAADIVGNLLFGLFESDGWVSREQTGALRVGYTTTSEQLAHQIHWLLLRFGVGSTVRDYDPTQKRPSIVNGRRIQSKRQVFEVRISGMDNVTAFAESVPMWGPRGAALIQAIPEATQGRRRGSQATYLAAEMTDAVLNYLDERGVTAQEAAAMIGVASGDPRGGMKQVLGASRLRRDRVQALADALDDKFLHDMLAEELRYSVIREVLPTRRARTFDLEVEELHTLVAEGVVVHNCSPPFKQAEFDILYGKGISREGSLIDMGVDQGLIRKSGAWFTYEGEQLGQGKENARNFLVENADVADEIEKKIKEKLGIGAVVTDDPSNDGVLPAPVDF

[20] = target: T4, Replicative DNA helicase DnaB (Mycobacterium tuberculosis, UniProt P9WMR3); assay: DnaB intein splicing inhibitors, dose response, biochemical, cell-free fluorescence (AID 449749); format: functional
T4 sequence (P9WMR3 whole entry): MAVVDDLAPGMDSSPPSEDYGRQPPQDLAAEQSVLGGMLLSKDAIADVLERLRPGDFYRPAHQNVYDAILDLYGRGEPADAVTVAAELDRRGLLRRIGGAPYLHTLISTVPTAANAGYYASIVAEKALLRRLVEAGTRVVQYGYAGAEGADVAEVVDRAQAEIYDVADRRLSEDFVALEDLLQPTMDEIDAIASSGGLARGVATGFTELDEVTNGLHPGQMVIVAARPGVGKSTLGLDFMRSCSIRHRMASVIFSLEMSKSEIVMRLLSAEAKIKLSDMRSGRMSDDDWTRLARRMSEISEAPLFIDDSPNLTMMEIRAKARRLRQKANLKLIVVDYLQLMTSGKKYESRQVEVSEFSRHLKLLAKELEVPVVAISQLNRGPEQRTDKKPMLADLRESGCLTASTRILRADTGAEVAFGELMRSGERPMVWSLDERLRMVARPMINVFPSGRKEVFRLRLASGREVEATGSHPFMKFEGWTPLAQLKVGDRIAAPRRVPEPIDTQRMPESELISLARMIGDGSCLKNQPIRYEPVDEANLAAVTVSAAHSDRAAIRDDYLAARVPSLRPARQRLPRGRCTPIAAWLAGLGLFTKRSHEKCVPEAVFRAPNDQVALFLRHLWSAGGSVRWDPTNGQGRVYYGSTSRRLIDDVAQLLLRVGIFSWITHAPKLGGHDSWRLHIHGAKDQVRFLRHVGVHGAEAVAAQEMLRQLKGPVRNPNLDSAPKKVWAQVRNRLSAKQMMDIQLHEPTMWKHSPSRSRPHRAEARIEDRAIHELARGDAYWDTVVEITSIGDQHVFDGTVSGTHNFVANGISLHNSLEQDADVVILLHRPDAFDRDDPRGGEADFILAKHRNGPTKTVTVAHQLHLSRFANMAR

FAD-linked sulfhydryl oxidase ALR, sequence (P55789 whole entry): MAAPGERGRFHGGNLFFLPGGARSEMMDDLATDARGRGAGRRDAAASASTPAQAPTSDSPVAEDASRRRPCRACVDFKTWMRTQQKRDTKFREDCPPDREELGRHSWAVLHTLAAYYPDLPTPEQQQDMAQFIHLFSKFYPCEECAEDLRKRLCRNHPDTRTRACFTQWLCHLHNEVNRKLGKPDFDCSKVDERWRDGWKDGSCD
Induced myeloid leukemia cell differentiation protein Mcl-1, sequence (Q07820 whole entry): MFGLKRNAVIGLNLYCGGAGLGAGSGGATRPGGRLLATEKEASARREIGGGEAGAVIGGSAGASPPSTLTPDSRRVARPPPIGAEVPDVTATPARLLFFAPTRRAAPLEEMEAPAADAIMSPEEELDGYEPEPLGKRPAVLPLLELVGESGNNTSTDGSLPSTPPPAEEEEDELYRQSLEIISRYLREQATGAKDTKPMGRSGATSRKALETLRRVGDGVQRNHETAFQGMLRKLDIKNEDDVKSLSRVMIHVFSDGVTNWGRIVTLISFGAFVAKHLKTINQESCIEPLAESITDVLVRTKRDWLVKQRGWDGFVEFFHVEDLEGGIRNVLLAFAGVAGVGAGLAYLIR
Cytochrome P450 2C19, sequence (P33261 whole entry): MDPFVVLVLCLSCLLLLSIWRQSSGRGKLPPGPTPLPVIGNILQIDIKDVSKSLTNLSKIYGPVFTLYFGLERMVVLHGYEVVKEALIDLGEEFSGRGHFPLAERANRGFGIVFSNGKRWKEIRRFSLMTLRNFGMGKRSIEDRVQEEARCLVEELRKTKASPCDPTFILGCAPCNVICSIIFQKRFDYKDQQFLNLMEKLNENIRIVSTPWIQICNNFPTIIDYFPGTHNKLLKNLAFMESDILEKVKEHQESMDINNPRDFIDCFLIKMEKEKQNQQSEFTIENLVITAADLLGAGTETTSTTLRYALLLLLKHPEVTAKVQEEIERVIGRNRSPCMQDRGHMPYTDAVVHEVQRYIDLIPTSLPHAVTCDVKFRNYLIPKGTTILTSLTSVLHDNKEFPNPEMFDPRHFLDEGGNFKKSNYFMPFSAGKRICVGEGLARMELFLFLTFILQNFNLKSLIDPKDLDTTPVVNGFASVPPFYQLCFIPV
Nonstructural protein 1, sequence (Q194T2 whole entry): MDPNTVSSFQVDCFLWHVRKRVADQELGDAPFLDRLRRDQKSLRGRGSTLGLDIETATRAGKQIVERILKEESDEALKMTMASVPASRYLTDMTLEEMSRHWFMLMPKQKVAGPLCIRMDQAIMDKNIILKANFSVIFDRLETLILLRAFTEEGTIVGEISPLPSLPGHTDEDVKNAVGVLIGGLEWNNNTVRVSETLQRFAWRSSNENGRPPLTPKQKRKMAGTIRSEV
Cytochrome P450 3A4, sequence (P08684 whole entry): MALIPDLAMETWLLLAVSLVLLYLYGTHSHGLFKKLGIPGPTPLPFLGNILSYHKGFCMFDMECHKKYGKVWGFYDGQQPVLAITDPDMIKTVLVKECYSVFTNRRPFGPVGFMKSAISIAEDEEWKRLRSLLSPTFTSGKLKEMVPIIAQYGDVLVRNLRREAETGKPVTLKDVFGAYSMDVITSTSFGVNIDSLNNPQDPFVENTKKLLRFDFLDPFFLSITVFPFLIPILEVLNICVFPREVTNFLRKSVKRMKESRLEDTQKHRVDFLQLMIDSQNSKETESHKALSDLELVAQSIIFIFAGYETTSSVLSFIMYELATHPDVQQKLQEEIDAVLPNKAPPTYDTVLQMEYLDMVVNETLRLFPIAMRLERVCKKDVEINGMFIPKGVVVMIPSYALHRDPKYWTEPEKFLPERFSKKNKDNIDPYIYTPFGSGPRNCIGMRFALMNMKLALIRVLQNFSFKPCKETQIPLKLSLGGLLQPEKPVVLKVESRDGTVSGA

CN(C)S(=O)(=O)c1cccc(NC(=O)CNCC2CCCCC2)c1
IC50 [1]: 115 µM (active)

COc1ccc(OS(=O)(=O)Cc2ccccc2)cc1
EC50 [2]: 57.5 µM (active)
EC50 [3]: > 120 µM (not active)
EC50 [4]: 10.8 µM (active)

COc1cccc(N2CCN(Cc3nnnn3C3CCCCC3)CC2)c1
EC50 [5]: > 195 µM (not active)
AC50 [6]: 5.12 µM (active)

Cc1ccc(NC(=O)C2=C(O)c3sccc3N(C)S2(=O)=O)cc1
EC50 [2]: > 120 µM (not active)
EC50 [3]: 13.2 µM (active)
EC50 [4]: 27.2 µM (active)

Cc1occc1C(=O)N1CCCC(Nc2ccc(C(C)C)cc2)C1 (stereo not drawn)
AC50 [6]: 3.97 µM (active)

COc1ccc2cc(S(=O)(=O)N3CCCCC3)ccc2c1S(=O)(=O)N1CCCCC1
EC50 [7]: > 260 µM (inactive)

CCC(C)(C)c1ccc(OC(=O)c2cccnc2Cl)cc1
EC50 [7]: 46.8 µM (active)

CC(C(=O)Nc1cc([N+](=O)[O-])ccc1Cl)N1CCN(c2ccc(O)cc2)CC1 (stereo not drawn)
IC50 [8]: 4.33 µM (not active)

COCc1cc(CN2CCCC(C(=O)Nc3ccc(-c4ccco4)cc3)C2)ccc1OC (stereo not drawn)
EC50 [7]: > 260 µM (inactive)

Cc1oc(=O)c(NC(=O)c2ccccc2)cc1C(=O)c1ccccc1
IC50 [9]: > 50 µM (active)
AC50 [10]: 8.91 µM (inconclusive)

Cc1ccc(Cn2cc(S(=O)(=O)c3ccc(Cl)cc3)c(=O)c3cc(F)ccc32)cc1
EC50 [7]: > 260 µM (inactive)

C=CCn1c(S)nnc1-c1ccccc1[N+](=O)[O-]
AC50 [6]: 1.69 µM (active)

CC(=O)NCCC(=O)Nc1sc2c(c1-c1nc3ccccc3[nH]1)CCCC2
AC50 [6]: 4.69 µM (active)

CCc1c(C)sc(NC(=O)c2ccc(Br)o2)c1C(=O)OC
EC50 [7]: > 260 µM (inactive)

O=C(Oc1ccc(N(C(=O)c2ccncc2)S(=O)(=O)c2cccs2)cc1)c1ccncc1
IC50 [1]: 86 µM (active)

CC(=O)c1ccc(OC(=O)c2ccc(-n3nc(C)cc3C)cc2)cc1
IC50 [9]: 7.6 µM (active)

CC1=NN(C(=O)c2csc(C)c2C)C(O)(C(F)(F)F)C1 (stereo not drawn)
IC50 [9]: 42.3 µM (active)

CN(CCCNC(=O)c1cccc(N2CCCC2=O)c1)c1ccccc1
AC50 [6]: 0.823 µM (active)

CC(C)c1ccc(Nc2nnc(SCC(=O)c3nnc(-c4ccccc4)o3)s2)cc1
IC50 [8]: 2.72 µM (active)

O=C(CSc1n[nH]c(-c2ccccn2)n1)Nc1cccc(Cl)c1
AC50 [11]: 2.9 µM (active)
EC50 [12]: 9 µM (active)
EC50 [13]: 10.3 µM (active)
EC50 [14]: 8.65 µM (active)
IC50 [15]: 8.24 µM (active)
AC50 [16]: 3.81 µM (active)
AC50 [17]: 2.9 µM (active)

CN(C)S(=O)(=O)c1cc(NC(=O)CNCCN2CCOCC2)ccc1Cl
IC50 [1]: 154 µM (active)

Cc1ccc(NC(=O)N/C=C/c2ccco2)cc1C
AC50 [18]: 12.6 µM (inconclusive)
AC50 [6]: 1.7 µM (active)

CN(C)c1ccc(CN(C(=O)c2ccco2)C2CCS(=O)(=O)C2)cc1 (stereo not drawn)
AC50 [6]: 4.16 µM (active)

O=c1[nH]c(CCl)nc2cc(-c3ccc(F)cc3)sc12
EC50 [19]: 5.66 µM (active)
EC50 [7]: 32.1 µM (active)
AC50 [20]: 11.7 µM (active)

CC(C)(C)NC(=O)c1cccc(NC(=O)CSc2ccc(Cl)cc2)c1
EC50 [7]: > 260 µM (inactive)

COc1ccccc1/C=C/C(=O)N1CCC(c2ccccc2)C1 (stereo not drawn)
EC50 [2]: 23.1 µM (active)
EC50 [3]: 9.44 µM (active)
EC50 [4]: 27.8 µM (active)

COc1cc(-c2nc3ccccn3c2/N=C/c2cc(OC)c(O)cc2Cl)ccc1O
IC50 [1]: 69.7 µM (active)

Cc1ccccc1-n1c(C)cc(/C=N/NC(=O)c2ccncc2)c1C
IC50 [9]: 0.18 µM (active)

C/C(CC(=O)Nc1ccc(N(C)C)cc1)=N\NC(=O)c1ccc(F)cc1
IC50 [1]: 47.4 µM (active)

COc1cc(/C=N/NC(=O)CC(=O)NC2CCCCC2)ccc1O
IC50 [1]: 51.6 µM (active)
AC50 [6]: 0.175 µM (active)

Reference: ChEMBL document CHEMBL1201862, “PubChem BioAssay data set” (2004)
